Legend:
[1] = target: human GOAT (Homo sapiens (Human), UniProt Q96T53); test: GOAT TR-FRET (HTRF) inhibition assay, 384-well; type: biochemical; conditions: His-tag human GOAT membrane preparation from sf9 cells; read-out: hGOAT IC50
Procedure: Compounds contained herein were evaluated for their ability to inhibit the activity of GOAT. GOAT activity was assessed using a time-resolved fluorescence energy transfer (TR-FRET) assay in a 384-well format. His-tag human GOAT enzyme was in the form of a cell membrane preparation from sf9 cells infected with hGOAT-V5-His baculovirus. Varying concentrations of test compound with final DMSO concentration kept to 0.5% were added to membrane solution. Human GOAT membrane activity was established in a buffer having final concentration 0.25 mg/mL in 50 mM MOPS, pH7.5; 50 mM KCl; 0.1 mg/mL BSA; 50 μM CHAPS; and 2 mM EDTA. Substrate solution consisting of biotinylated ghrelin peptide (final concentration 100 nM), octanoyl coA (final concentration 2 μM) and palmitoyl CoA (final concentration 50 μM) was added to initiate the reaction. Plates were sealed, centrifuged for 1 minute at 2000 rpm, then incubated at 30° C. for 80 minutes with gentle shaking on an Eppendorf mix plate. Reaction termination and detection mix consisting of chicken anti-active ghrelin antibody (final concentration of 10 nM), Europium W1024-labeled streptavidin (final concentration of 4 nM), GOAT anti-chicken Dylight (final concentration of 12.5 nM), and GS[DAP-oc]-FL-amide inhibitor (final concentration of 1 μM) was added before further incubation for 40 minutes at 30° C. The plate was then read on an Envision in HTRF mode with excitation filter UV (TRF) 340 and first emission filter of APC 665 and a second emission filter of Europium 615. HTRF readings were acquired as per instrument defined LANCE-DELFIA protocol with a delay and window times of 50 μs for both; number of sequential windows: 1; time between flashes: 2000 μs between each of 100 flashes and 10 flashes for the second detector. The HTRF ratio was calculated directly by the instrument as the ratio of 665 window/615 window. Percent inhibition was calculated as 100−(100×(U−NC)/(PC−NC)) where U was the unknown value HTRF ratio (test compound value), NC was the negative control (100% inhibition value generated from a potent inhibitor), and PC was the positive control (100% activity generated from 0.5% DMSO vehicle). IC50 values were generated in GraphPad Prism (Version 4.03) using non-linear regression curve fit and sigmoidal dose response variable slope analysis.

[2] = tested on: acyl ghrelin; test: Single-dose PK/PD study, acyl ghrelin reduction in cynomolgus monkeys; type: in vivo; conditions: single oral dose 10 mg/kg, over the first 24 hours, fasted
Procedure: A single-dose PK/PD study was conducted in cynomolgus monkeys after a 10 mg/kg dose of Example 1a. On day zero, after an overnight fast, three monkeys were administered an oral dose of vehicle, and blood was collected pre-dose and 1, 3, 8, and 24 hours later. The 24 hour time point served as the pre-dose measurement for day 1 when, after an overnight fast, the monkeys were administered a single oral dose of 10 mg/kg Example 1a. Blood was collected at various time points (15 minutes, 30 minutes, 1 hour, 3 hours, 8 hours, 24 hours, 48 hours, 96 hours, and 168 hours) with overnight fasting throughout the study.

[3] = tested on: acyl ghrelin; test: Acyl ghrelin reduction in mice (fasting induced); type: in vivo; conditions: 5 doses; for acyl ghrelin reduction: 3 h after final dose, p<0.05
Procedure: (§1) Normal mice were administered various oral doses of Example 1a on a bid basis for two days (4 doses). Food was withdrawn the evening of the second day after the fourth dose, and then the animals were administered a final dose the morning of the third day. Three hours after this fifth and final dose, blood was collected for ghrelin and acyl ghrelin measurement by ELISA.

[4] = tested on: acyl ghrelin; test: Acyl ghrelin reduction in rats (fasting induced); type: in vivo, male SD rats; conditions: 10 mg/kg, same design as mice
Procedure: as §1
The same experimental design was conducted in rats administered 10 mg/kg of Example 1a.

[5] = tested on: acyl ghrelin; test: Acyl ghrelin reduction in mice on a high fat, high carb diet; type: in vivo, male C57BL/6 mice; conditions: HFHC diet; for reduction in acyl ghrelin levels compared to Rimonabant followed by vehicle: statistically significant
Procedure: Normal mice were acclimated to individual housing for two weeks on normal chow diet (20% calories from protein, 35% from carbohydrate, and 45% from fat). All mice except a control group were then switched to a high fat, high carb (HFHC) diet to cause obesity. Mice on the HFHC diet were administered 3 mg/kg Rimonabant once daily for seven days to cause weight loss except for one group that initiated 10 mg/kg Example 1a immediately. Mice that had been treated with Rimonabant were then administered various treatments in the evening for 21 days: vehicle, 3 mg/kg Rimonabant, or 10 mg/kg Example 1a. Mice were fasted overnight and administered a final treatment in the morning. Three hours later, blood was collected for plasma acyl ghrelin and des-acyl ghrelin determination.

[6] = normal mice, various oral doses bid, blood 3 h after final dose, fasted, ELISA
[7] = continuous treatment with 10 mg/kg Example 1a

Chain of human GOAT (Q96T53 whole entry): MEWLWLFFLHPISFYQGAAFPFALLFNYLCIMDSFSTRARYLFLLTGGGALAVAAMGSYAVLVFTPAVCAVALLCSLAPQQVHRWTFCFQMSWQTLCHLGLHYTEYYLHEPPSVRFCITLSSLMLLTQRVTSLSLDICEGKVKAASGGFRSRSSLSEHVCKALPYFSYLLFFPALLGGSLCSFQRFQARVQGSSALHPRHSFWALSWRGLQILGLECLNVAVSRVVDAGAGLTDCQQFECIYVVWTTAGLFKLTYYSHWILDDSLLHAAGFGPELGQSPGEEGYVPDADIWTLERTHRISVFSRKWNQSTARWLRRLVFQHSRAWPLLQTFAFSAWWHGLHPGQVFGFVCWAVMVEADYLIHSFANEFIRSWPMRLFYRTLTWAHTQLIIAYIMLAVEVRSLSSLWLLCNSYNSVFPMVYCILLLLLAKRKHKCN

Compound | IC50 [1] [nM] | also measured
N#Cc1ccc2c(n1)CCC2Oc1cc(Cl)c2c(CC(=O)O)csc2c1 (racemic) [Example 8, 2-(4-chloro-6-((2-cyano-6,7-dihydro-5H-cyclopenta[b]pyridin-5-yl)oxy)benzo[b]thiophen-3-yl)acetic Acid] | < 50 | 
O=C(O)Cc1csc2cc(O[C@@H]3CCc4ncccc43)cc(Cl)c12 [Example 1b, (R)-2-(4-chloro-6-((6,7-dihydro-5H-cyclopenta[b]pyridin-5-yl)oxy)benzo[b]thiophen-3-yl)acetic acid] | < 5000 | 
Cc1ccc2c(n1)CC[C@@H]2Oc1cc(Cl)c2c(CC(=O)O)csc2c1 [Example 2a, (S)-2-(4-chloro-6-((2-methyl-6,7-dihydro-5H-cyclopenta[b]pyridin-5-yl)oxy)benzo[b]thiophen-3-yl)acetic acid] | < 50 | 
O=C(O)Cc1csc2c(Cl)c(O[C@H]3CCc4nc(Cl)ccc43)cc(Cl)c12 [Example 3a] | < 500 | 
O=C(O)Cc1csc2c(Cl)c(O[C@H]3CCc4nc(C(F)(F)F)ccc43)cc(Cl)c12 [Example 4a] | < 500 | 
O=C(O)Cc1csc2c(Cl)c(O[C@@H]3CCc4nc(C(F)(F)F)ccc43)cc(Cl)c12 [Example 4b] | < 50 | 
O=C(O)Cc1csc2cc(O[C@@H]3COc4ncccc43)cc(Cl)c12 [Example 6b] | < 50 | 
O=C(O)Cc1csc2c(Cl)c(O[C@H]3COc4ncccc43)cc(Cl)c12 [Example 7a] | < 5000 | 
O=C(O)Cc1csc2c(Cl)c(O[C@@H]3COc4ncccc43)cc(Cl)c12 [Example 7b] | < 50 | 
NC(=O)c1ccc2c(n1)CC[C@@H]2Oc1cc(Cl)c2c(CC(=O)O)csc2c1 [Example 9a] | < 500 | 
NC(=O)c1ccc2c(n1)CC[C@H]2Oc1cc(Cl)c2c(CC(=O)O)csc2c1 [Example 9b] | < 50 | 
Cc1c(C(=O)NN2CCCCC2)nn(-c2ccc(Cl)cc2Cl)c1-c1ccc(Cl)cc1 [Rimonabant, reference compound] |  | acyl ghrelin levels (so in the source); context is des-acyl ghrelin, FIG. 8) ([5]; 3 mg/kg Rimonabant treatment alone, not as much as with Example 1a): increased

Further lines, with some results ahead:

IC50 [1] [nM] | Compound | also measured
< 50 | O=C(O)Cc1csc2cc(O[C@H]3CCc4ncccc43)cc(Cl)c12 [Example 1a, (S)-2-(4-chloro-6-((6,7-dihydro-5H-cyclopenta[b]pyridin-5-yl)oxy)benzo[b]thiophen-3-yl)acetic Acid] | reduction in the acyl ghrelin AUC relative to vehicle treatment [2]: 51%; acyl ghrelin reduction ([3]; 1 mg/kg oral bid): statistically significant; acyl ghrelin reduction ([3]; 10 mg/kg oral bid): statistically significant; acyl ghrelin (dose response) [3, 6]: Dose-dependent decreases; des-acyl ghrelin (dose response) [3, 6]: increases; acyl ghrelin levels [4]: significantly reduced; des-acyl ghrelin levels [4]: increased; reduction in acyl ghrelin levels compared to Rimonabant followed by vehicle ([5]; 10 mg/kg Example 1a for 21 days after 7 days of 3 mg/kg Rimonabant): 61%; des-acyl ghrelin levels relative to Rimonabant followed by vehicle treatment ([5]; both Example 1a treatments (10 mg/kg)): statistically significantly elevated; reduction in acyl ghrelin compared to vehicle treatment alone [5, 7]: 28%; reduction in acyl ghrelin levels compared to Rimonabant followed by vehicle [5, 7]: 57%
< 5000 | Cc1ccc2c(n1)CC[C@H]2Oc1cc(Cl)c2c(CC(=O)O)csc2c1 [Example 2b, (R)-2-(4-chloro-6-((2-methyl-6,7-dihydro-5H-cyclopenta[b]pyridin-5-yl)oxy)benzo[b]thiophen-3-yl)acetic acid] | 
< 50 | O=C(O)Cc1csc2c(Cl)c(O[C@@H]3CCc4nc(Cl)ccc43)cc(Cl)c12 [Example 3b] | 
< 5000 | O=C(O)Cc1csc2c(F)c(O[C@H]3COc4nc(C(F)(F)F)ccc43)cc(Cl)c12 [Example 5a] | 
< 50 | O=C(O)Cc1csc2c(F)c(O[C@@H]3COc4nc(C(F)(F)F)ccc43)cc(Cl)c12 [Example 5b] | 
< 50 | O=C(O)Cc1csc2cc(O[C@H]3COc4ncccc43)cc(Cl)c12 [Example 6a] | 

From patent publication US11312709B2, “Ghrelin O-acyltransferase inhibitors” (Glaxosmithkline Intellectual Property Development Limited, priority 2018, dated 2022)
